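Results reflect a 48-hour exposure of cells in 96-well plates to compound at five concentrations. GI50: concentration for 50% inhibition of growth. Definition used: TGI = concentration required for complete inhibition of growth.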
How the values were obtained:
Assay in all cases: DTP human tumour cell line panel, 48 h
MDA-N = test system: MDA-N
MDA-MB-435 = test system: MDA-MB-435
T-47D breast = test system: T-47D breast
RXF-631 renal = test system: RXF-631 renal
HOP-18 NSCLC = test system: HOP-18 NSCLC
KM20L2 colon = test system: KM20L2 colon
DMS 273 small cell lung = test system: DMS 273 small cell lung
LXFL 529 NSCLC = test system: LXFL 529 NSCLC
SNB-78 CNS = test system: SNB-78 CNS

Row | Structure (SMILES) | TGI (MDA-MB-435) | TGI (T-47D breast) | TGI (KM20L2 colon) | TGI (LXFL 529 NSCLC) | GI50 (MDA-MB-435) | GI50 (T-47D breast) | further results
1 | Cc1ccc2nc(CC(=O)c3ccc4ccccc4c3)c(=O)[nH]c2c1 | > 100 µM | > 100 µM | – | – | – | – | TGI (MDA-N): > 100 µM
2 | CC(=O)OCc1c(C)c2ccccc2n1C(C)=O | – | – | > 100 µM | – | – | – | TGI (RXF-631 renal): 66.9 µM; TGI (HOP-18 NSCLC): > 100 µM; TGI (DMS 273 small cell lung): 59.9 µM
3 | CC1OC(n2cc(I)c(=O)[nH]c2=O)C=CC1=O (stereo unspecified) | – | – | 31 µM | 22.7 µM | – | – | TGI (HOP-18 NSCLC): 30.3 µM; TGI (SNB-78 CNS): 31.9 µM; TGI (DMS 273 small cell lung): 31.3 µM
4 | O=C(NCc1cccs1)OC1CC2CCC1C2 (stereo unspecified) | > 100 µM | > 100 µM | – | – | – | – | TGI (MDA-N): > 100 µM
5 | Cc1cccc2c1NC(=O)C2(c1ccc(O)cc1)c1ccc(O)cc1 | 34.9 µM | – | – | – | 15.4 µM | < 0.01 µM | –
6 | C[CH2][Sn]([Cl])([CH2]C)[CH2]C | – | – | 2.99 µM | 3.27 µM | – | – | GI50 (LXFL 529 NSCLC): 0.469 µM; GI50 (SNB-78 CNS): 0.922 µM; TGI (SNB-78 CNS): 5.04 µM; GI50 (KM20L2 colon): 0.524 µM
7 | O=C(O)C1CCCCC1C(=O)Nc1nc2ccccc2[nH]1 (stereo unspecified) | > 100 µM | > 100 µM | – | – | – | – | TGI (MDA-N): > 100 µM
8 | O=C(c1ccncc1)N1CCN(C2=NS(=O)(=O)c3ccccc3N2c2ccccc2)CC1 | 40 µM | 57.5 µM | – | – | 18.9 µM | 10.9 µM | –
9 | CC(=O)Nc1ccc(S(=O)(=O)c2ccc(NC(C)=O)cc2)cc1 | > 100 µM | > 100 µM | – | – | > 100 µM | > 100 µM | –
10 | Nc1nc(Cl)nc2c1ncn2C1CCC(COP(=O)(O)OP(=O)(O)OP(=O)(O)O)O1 (stereo unspecified) | 58.1 µM | > 100 µM | – | – | – | – | TGI (MDA-N): > 100 µM
11 | O=C1C2C3CCC(C2C(=O)N1CO)C1C2C(=O)N(CO)C(=O)C2C31 (stereo unspecified) | – | – | > 79.8 µM | > 100 µM | – | – | TGI (HOP-18 NSCLC): 34.2 µM; TGI (SNB-78 CNS): > 100 µM; TGI (DMS 273 small cell lung): > 58.1 µM
12 | CC1=C2[C@@H](c3ccccc3)C3C=CC2(c2ccccc23)N(C(=O)Nc2cccc3ccccc23)C1=O (stereo partly specified) | – | – | > 100 µM | > 100 µM | – | – | TGI (HOP-18 NSCLC): > 100 µM; TGI (SNB-78 CNS): > 100 µM; TGI (DMS 273 small cell lung): > 100 µM
13 | C/C=C(\C)C(=O)OC1C2C(C)C(=O)OC2C(O)C(C)C2C=CC(=O)C21C (stereo unspecified) | 26.1 µM | 43.3 µM | – | – | – | – | TGI (MDA-N): 22.8 µM
14 | CN/N=C(/CC(=O)c1sc(-n2nc(-c3ccccc3)cc2-c2ccccc2)nc1C)C(=O)Nc1ccc(Cl)c(Cl)c1 | – | – | – | > 100 µM | – | – | TGI (SNB-78 CNS): > 100 µM
15 | Cc1nn(-c2ccccc2)c(C)c1/C=N/N1CCN(Cc2ccccc2)CC1 | > 100 µM | – | – | – | > 100 µM | – | –
16 | O=c1nc(-c2ccccc2)scc1-c1ccccc1 | – | – | > 100 µM | > 100 µM | – | – | TGI (RXF-631 renal): > 100 µM; TGI (HOP-18 NSCLC): > 100 µM
17 | Nc1ncnc2c1c(C(=O)NO)cn2C1OC(CO)C(O)C1O (stereo unspecified) | 1.9 µM | 1.39 µM | – | – | 0.363 µM | 0.0885 µM | –
18 | O=C(O)CP(=O)(c1ccccc1)c1ccccc1.O=C(O)CP(=O)(c1ccccc1)c1ccccc1.[Cd] | 22.4 µM | 73.3 µM | – | – | 4.26 µM | 24 µM | –
19 | Cc1csc(-c2ccc3c(c2)COC3(CCCN(C)C)c2ccc(F)cc2)c1 (stereo unspecified) | 3.08 µM | 4.62 µM | – | – | 1.69 µM | 1.85 µM | –

From PubChem BioAssay (NCI)
